The results in this text go back to ChEMBL document CHEMBL5335777 (Eur J Med Chem, 2023).

SMILES strings stand for the structures. The source made the active and inactive calls. No cut-off for these calls is given here.

The term IC50 denotes the concentration at which inhibition is half-maximal.

A short description of data set [1]: Cytotoxicity against human MRC5 cells assessed as inhibition of cell growth incubated for 72 hrs by MTT assay. The class given is toxicity, cell-based. On the technique in general: Tetrazolium assays rely on reduction of a dye to a coloured formazan, in cell work by metabolically active cells.
The subject of data set [2] is BXPC-3. In words: Antiproliferative activity against human BXPC-3 cells harboring wild type KRAS assessed as inhibition of cell growth incubated for 72 hrs by MTT assay. It counts as functional, cell-based. The note with it: BXPC-3, 72 h.
Data set [3] deals with NCI-H358. The experiment in a line: Antiproliferative activity against human NCI-H358 cells harboring heterozygous KRAS G12C mutant assessed as inhibition of cell growth incubated for 72 hrs by MTT assay. It counts as functional, cell-based. As to conditions: NCI-H358, 72 h.
Data set [4] has as its system SW480. The experiment in a line: Antiproliferative activity against human SW480 cells harboring homozygous KRAS G12V mutant assessed as inhibition of cell growth incubated for 72 hrs by MTT assay. The class given is functional, cell-based. The note with it: SW480, 72 h.
Data set [5] has as its system NCI-H1792. In words: Antiproliferative activity against human NCI-H1792 cells harboring heterozygous KRAS G12C mutant assessed as inhibition of cell growth incubated for 72 hrs by MTT assay. The class given is functional, cell-based. The note with it: NCI-H1792, 72 h.
The species named for data set [6] is Homo sapiens. The experiment in a line: Selectivity ratio of IC50 for human MRC5 cells to IC50 for human MIA PaCa-2 cells harboring homozygous KRAS G12C mutant.
Data set [7] in a line: Selectivity ratio of IC50 for human BXPC-3 cells harboring wild type KRAS to IC50 for human MIA PaCa-2 cells harboring homozygous KRAS G12C mutant. The class given is functional.
Data set [8] can be described thus: Selectivity ratio of IC50 for human LCLC-103H cells harboring wild type KRAS to IC50 for human A549 cells harboring homozygous KRAS G12S mutant. It counts as functional.
Data set [9] relates to PANC-1. In words: Antiproliferative activity against human PANC-1 cells harboring heterozygous KRAS G12D mutant assessed as inhibition of cell growth incubated for 72 hrs by MTT assay. It counts as functional, cell-based. As to conditions: PANC-1, 72 h.
Data set [10] deals with LCLC-103H cell line. In words: Antiproliferative activity against human LCLC-103H cells harboring wild type KRAS assessed as inhibition of cell growth incubated for 72 hrs by MTT assay. The class given is functional, cell-based.
The test system of data set [11] is SW1573. The experiment in a line: Antiproliferative activity against human SW1573 cells harboring homozygous KRAS G12C mutant assessed as inhibition of cell growth incubated for 72 hrs by MTT assay. It counts as functional, cell-based. As to conditions: SW1573, 72 h.
The nature of data set [12]: Selectivity ratio of IC50 for human LCLC-103H cells harboring wild type KRAS to IC50 for human SW1573 cells harboring homozygous KRAS G12C mutant. It counts as functional.
Data set [13] concerns MIA PaCa-2. In words: Antiproliferative activity against human MIA PaCa-2 cells harboring homozygous KRAS G12C mutant assessed as inhibition of cell growth incubated for 72 hrs by MTT assay. As to conditions: MIA PaCa-2, 72 h. The class given is functional, cell-based.
Data set [14] can be described thus: Selectivity ratio of IC50 for human LCLC-103H cells harboring wild type KRAS to IC50 for human NCI-H358 cells harboring heterozygous KRAS G12C mutant. The class given is functional.
The nature of data set [15]: Selectivity ratio of IC50 for human MRC5 cells to IC50 for human SW1573 cells harboring homozygous KRAS G12C mutant. It counts as toxicity. The note with it: MRC5 cells versus SW1573 cells (homozygous KRAS G12C mutant), read-out: Ratio IC50.
The species named for data set [16] is Homo sapiens. In words: Inhibition of GDP-bound human KRAS 149stop G12C mutant expressed in Escherichia coli BL21 Rosetta cells assessed as inhibition of EDTA mediated nucleotide exchange at 250 uM measured after 24 hrs by fluorescence based analysis.
For data set [17], the system named is NCI-H1792. In words: Antiproliferative activity against human NCI-H1792 cells harboring KRAS G12C mutant assessed as reduction in cell viability at 2.5 uM incubated for 72 hrs by MTT assay. The class given is functional, cell-based.
Data set [18] has as its system A549. In words: Antiproliferative activity against human A549 cells harboring homozygous KRAS G12S mutant assessed as inhibition of cell growth incubated for 72 hrs by MTT assay. It counts as functional, cell-based. The note with it: A549, 72 h.
A short description of data set [19]: Selectivity ratio of IC50 for human LCLC-103H cells harboring wild type KRAS to IC50 for human NCI-H1792 cells harboring […] KRAS G12C mutant. The class given is functional.
The nature of data set [20]: Selectivity ratio of IC50 for human BXPC-3 cells harboring wild type KRAS to IC50 for human PANC-1 cells harboring heterozygous KRAS G12D mutant. It counts as functional.
The species named for data set [21] is Homo sapiens. In words: Selectivity ratio of IC50 for human MRC5 cells to IC50 for human NCI-H358 cells harboring heterozygous KRAS G12C mutant.
The species named for data set [22] is Homo sapiens. The experiment in a line: Inhibition of GDP-bound human KRAS 149stop G12C mutant expressed in Escherichia coli BL21 Rosetta cells assessed as inhibition of SOS1 mediated nucleotide exchange at 250 uM measured after 24 hrs by fluorescence based analysis.
Data set [23] relates to NCI-H1792. The experiment in a line: Antiproliferative activity against human NCI-H1792 cells harboring KRAS G12C mutant assessed as cell viability at 25 uM incubated for 72 hrs by MTT assay relative to control. It counts as functional. As to conditions: read-out: Activity.
The species named for data set [24] is Homo sapiens. The experiment in a line: Selectivity ratio of IC50 for human MRC5 cells to IC50 for human NCI-H1792 cells harboring homozygous KRAS G12C mutant.

For the compound `C=CC(=O)N1CC(N2CCN(C(=O)CNc3cc(C4(C)CC4)c(Cl)cc3O)CC2)C1`, in data set [1], the IC50 at 72 h came to 75.3 µM. Moreover, the 50% inhibitory concentration (IC50) in [2] amounted to 36.8 µM; in data set [3], 6.9 µM; in data set [4] it was 27.8 µM; in [5], 27.9 µM; in data set [9], 58.2 µM; in data set [10] it was 41.5 µM. For the same compound, the IC50 in data set [11] was found to be 25.9 µM; in [13], 5.8 µM; in [18], 35.2 µM. For the same compound, the Ratio IC50 came out at 13 in [6]; 6.4 in [7]; 1.2 in data set [8]; 1.6 in data set [12]; 6 in data set [14]; 1.5 in data set [19]. For the same compound, the figures for the “Ratio IC50” value in [20], in data set [21] and in [24] were 0.6, 11 and 2.7, respectively. Moreover, in [15], the selectivity ratio is 2.9. The inhibition result in [16] and in [22] was “Active” each time. In addition, the result in data set [17] was Active. Moreover, in data set [23], the viability at 25 µM is < 50%.
